Data published in publication PMC9611092 (Viruses, 2022).
Read-outs that look alike come from different tables or passages of the source.

Key:
[1] = Cytotoxicity of compounds on HEK293T cells (MTT); assay type: cell-based; details: human
in vitro = details: African green monkey
[2] = tested on: lentiviral particles exhibiting S protein of SARS-CoV-2; assay: microbe, parasite or virus in culture; assay type: cell-based; details: for inhibition at 25 µM: Severe acute respiratory syndrome coronavirus 2, 48 h, read-out: % Neutralization at 25 µM
[3] = tested on: SARS-CoV-2 Wuhan lineage B, hCoV-19/Australia/VIC01/2020 (EPI_ISL_406844); assay: microbe, parasite or virus in culture; assay type: cell-based; details: for IC50: Severe acute respiratory syndrome coronavirus 2, Vero C1008, 96 h
[4] = tested on: main viral protease 3CLPro; details: cited from earlier work; for active against 3CLPro at a dose of: range for the four flavonoids
[5] = tested on: SARS-CoV-2 Omicron lineage B.1.1.529, hCoV-19/Russia/Moscow171619-031221/2021; assay: microbe, parasite or virus in culture; assay type: cell-based; details: Severe acute respiratory syndrome coronavirus 2, Vero C1008, 96 h
[6] = tested on: SARS-CoV-2 Delta lineage B.1.617.2, hCoV-19/Russia/PSK-2804/2021; assay: microbe, parasite or virus in culture; assay type: cell-based; details: for IC50: Severe acute respiratory syndrome coronavirus 2, Vero C1008, 96 h
[7] = target: main protease (3CLpro) of SARS-CoV-2 (Severe acute respiratory syndrome coronavirus 2, UniProt P0DTD1); assay: biochemical
[8] = HEK293T cells, 72 h, MTT, read-out: CC50
[9] = Severe acute respiratory syndrome coronavirus 2

SMILES	CC50 at 72 h [1] [µM]	CC50 at 4 days (in vitro) [µM]	inhibition at 25 µM [2] [%]	IC50 [3] [µM]	IC50 [2, 9] [µM]	IC50 [5] [µM]	IC50 [6] [µM]	further results
CC(=O)C1=C(O)C=C2Oc3c(C(=O)CSC(C)C(=O)O)c(O)c(C)c(O)c3[C@@]2(C)C1=O (mixture of isomers) [Compound 5b, (2S)-2-({2-[(1R)-12-acetyl-3,5,11-trihydroxy-1,4-dimethyl-13-oxo-8-oxatricyclo[7.4.0.0^2,7]trideca-2(7),3,5,9,11-pentaen-6-yl]-2-oxoethyl}sulfanyl)propanoic acid and (2R)-2-({2-[(1R)-12-acetyl-3,5,11-trihydroxy-1,4-dimethyl-13-oxo-8-oxatricyclo [7.4.0.0^2,7]trideca-2(7),3,5,9,11-pentaen-6-yl]-2-oxoethyl}sulfanyl)propanoic acid (1:1)]	> 1000	176 ± 22.6	41	76.5 ± 8.2	–	–	–	melting point: 91 to 95 °C; antiviral activity (in words) [3]: low activity
COc1ccc(-c2cc(=O)c3c(O)c(O)c(O)cc3o2)cc1 [4′-O-methylscutellarein]	–	–	–	–	–	–	–	activity against the main protease (in words) [4]: submicromolar
CCOC(=O)c1c(CSc2ccccc2)n(C)c2cc(Br)c(O)c(CN(C)C)c12 [Arbidol, reference compound]	–	–	58	–	12.6 ± 4.1	–	–	CC50 at 72 h [1, 8]: 19.8 ± 4.6 µM
CC(=O)C1=C(O)C=C2Oc3c(C(C)=O)c(O)c(C)c(O)c3[C@@]2(C)C1=O [Compound 1, (R)-(+)-Usnic acid]	–	–	12	10.9 ± 2.2	–	3.7 ± 0.8	20.9 ± 3.4	CC50 at 72 h [1, 8]: > 1000 µM; CC50 (in vitro): 147 ± 22.1 µM; activity against the pseudovirus system (in words) [2]: is not an entry inhibitor; inhibition of the main protease (in words) [7]: not an inhibitor
CC(=O)c1c(O)c(C)c(O)c2c1OC1=Cc3onc(C)c3C(=O)[C@@]12C [Compound 2]	> 1000	252 ± 31	55	–	30 ± 2.9	–	–	In Vitro (Pseudotype-Based Assay) [2]: yes; antiviral activity (in words) [3]: did not exhibit antiviral activity at all
CC(=O)c1c(O)c(C)c(O)c2c1OC1=CC(=O)c3c(C)noc3[C@@]12C [Compound 3]	150 ± 18.5	15.5 ± 2.8	65	9.2 ± 2.4	32 ± 5.1	3.5 ± 1.1	9.1 ± 1.8	–
CC(=O)C1=C(O)C=C2Oc3c(C(=O)CSCCC(=O)O)c(O)c(C)c(O)c3[C@@]2(C)C1=O [Compound 5a]	> 1000	177 ± 18.2	0	–	–	–	–	activity against the pseudovirus system (in words) [2]: no activity; antiviral activity (in words) [3]: no antiviral activity at all
CC(=O)C1=C(O)C=C2Oc3c(C(C)=O)c(O)c(C)c(O)c3[C@@]2(C)[C@@H]1O [Compound 6]	–	–	40	65.3 ± 7.4	–	–	–	CC50 at 72 h [1, 8]: 168 ± 21.2 µM; CC50 (in vitro): 99 ± 12.1 µM; IC50 [7]: 112 µM
CC(=O)c1c(O)c(C)c(O)c2c1OC1=CC(=O)/C(=C(/C)N)C(=O)[C@@]12C [Compound 7]	850 ± 22.6	528 ± 16	12	–	–	–	–	IC50 [7]: ~200 µM; antiviral activity (in words) [3]: has no antiviral activity at all
CC(=O)C1=C(O)C=C2Oc3c4c(c(C)c(O)c3[C@@]2(C)C1=O)OCC4=O [Compound 8]	358 ± 31.1	176 ± 19.9	0	44.3 ± 5.2	–	47 ± 6.5	95 ± 8.7	antiviral activity (in words) [6]: almost no activity; activity against the pseudovirus system (in words) [2]: no activity; IC50 [7]: ~200 µM
CC(=O)C1=C(O)C=C2Oc3c(C(=O)CO)c(O)c(C)c(O)c3[C@@]2(C)C1=O [Compound 10, (2R)-4-acetyl-5,11,13-trihydroxy-10-(2-hydroxyacetyl)-2,12-dimethyl-8-oxatricyclo[7.4.0.0^2,7]trideca-1(9),4,6,10,12-pentaen-3-one]	750 ± 36.6	306 ± 28.6	45	25.3 ± 2.1	–	17.5 ± 3.8	9.7 ± 1.4	IC50 [7]: ~200 µM; melting point: 107 to 110 °C
CC(=O)C1=C(O)C[C@H]2Oc3c(C(C)=O)c(O)c(C)c(O)c3[C@@]2(C)C1=O [Compound 11, (2R,7R)-4,10-diacetyl-5,11,13-trihydroxy-2,12-dimethyl-8-oxatricyclo [7.4.0.0^2,7]trideca-1(9),4,10,12-tetraen-3-one]	469 ± 24.2	84.9 ± 12.1	78	21 ± 3.5	22 ± 3.2	–	–	–
CCC1=C(O)C[C@H]2Oc3c(C(C)=O)c(O)c(C)c(O)c3[C@@]2(C)C1=O [Compound 12, (2R,7R)-10-acetyl-4-ethyl-5,11,13-trihydroxy-2,12-dimethyl-8-oxatricyclo[7.4.0.0^2,7]trideca-1(13),4,9,11-tetraen-3-one]	> 1000	262 ± 32	53	91 ± 7.1	28 ± 3.7	60 ± 12.1	85 ± 11.2	melting point: 58 to 62 °C
CC(=O)c1c(O)c(C)c(O)c2c1O[C@@H]1CC/C(=C(/C)O)C(=O)[C@]21C [Compound 13, (2R,4E,7R)-10-acetyl-11,13-dihydroxy-4-(1-hydroxyethylidene)-2,12-dimethyl-8-oxatricyclo [7.4.0.0^2,7] trideca-1(13),9,11-trien-3-one]	151 ± 14.9	72.7 ± 14.6	95	6.7 ± 1.4	5.3	6.6 ± 1.9	13.5 ± 2.1	IC50 [2]: 5.28 ± 0.8 µM; melting point: 100 to 103 °C
CC(=O)c1c(O)c(C)c(O)c2c1O[C@@H]1Cc3onc(C)c3C(=O)[C@]21C [Compound 14, (1R,9R)-6-acetyl-3,5-dihydroxy-1,4,14-trimethyl-8,12-dioxa-13-azatetracyclo[7.7.0.0^2,7.0^11,^1⁵]hexadeca-2(7),3,5,11(15),13-pentaen-16-one]	> 1000	296 ± 11.9	15	–	–	–	–	melting point: 152 to 156 °C; antiviral activity (in words) [3]: does not exhibit antiviral properties
O=C1c2c(O)cc(O)cc2O[C@H](c2cc(O)c(O)c(O)c2)[C@H]1O [Dihydromyricetin]	–	–	–	–	–	–	–	active against 3CLPro at a dose of [4]: 1.2 to 5.8 µM
O=c1c(O)c(-c2cc(O)c(O)c(O)c2)oc2cc(O)cc(O)c12 [Myricetin]	–	–	–	–	–	–	–	active against 3CLPro at a dose of [4]: 1.2 to 5.8 µM
O=c1c(O)c(-c2ccc(O)c(O)c2)oc2cc(O)c(O)c(O)c12 [Quercetagetin]	–	–	–	–	–	–	–	active against 3CLPro at a dose of [4]: 1.2 to 5.8 µM
CCC(CC)COC(=O)[C@H](C)N[P@](=O)(OC[C@H]1O[C@@](C#N)(c2ccc3c(N)ncnn23)[C@H](O)[C@@H]1O)Oc1ccccc1 [Remdesivir, reference compound]	–	–	–	3.8 ± 0.42	–	2 ± 0.13	2.1 ± 0.16	CC50 (in vitro): 711 ± 21.2 µM
O=c1cc(-c2ccc(O)cc2)oc2cc(O)c(O)c(O)c12 [Scutellarein]	–	–	–	–	–	–	–	active against 3CLPro at a dose of [4]: 1.2 to 5.8 µM
